Test results taken from PubChem BioAssay AID330 (DTP/NCI, 2004).
Values joined by “and” are separate entries in the source; they are usually repeats but may differ in a detail not shown here. Equal entries are not always repeated. Toxic doses and inconclusive results are not listed. Rule for the calls: active = survival T/C of 150% or more; inactive = T/C below 125% in these data.

Test system: P388 leukemia ip, CD2F1 mice, survival T/C
Test: NCI In Vivo Anticancer Drug Screen. Data for tumor model P388 Leukemia (intraperitoneal) in CD2F1 (CDF1) mice
Conditions: endpoint: median survival time, higher = longer survival
Method in brief: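 Mice carrying the transplanted tumor received test compound or vehicle. Survival was recorded in each group, and the value is the treated-group measurement divided by that of the vehicle-treated control group.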

[1] = dose: 100.0 mg/kg/injection, schedule: Q04DX003 (ip), vehicle: saline with Tween-80
[2] = dose: 100.0 mg/kg/injection, schedule: Q04DX003 (ip), vehicle: saline
[3] = dose: 200.0 mg/kg/injection, schedule: Q04DX003 (ip), vehicle: saline
[4] = dose: 400.0 mg/kg/injection, schedule: Q04DX003 (ip), vehicle: saline

Measured: T/C

OC(CNc1ccc(CSc2ccccc2)cc1)c1ccccc1 (stereo not drawn)
inactive: dose: 50.0 mg/kg/injection, schedule: Q01DX009 (ip), vehicle: saline + Tween-80 + alcohol 101 % of control and 104 % of control | dose: 100.0 mg/kg/injection, schedule: Q01DX009 (ip), vehicle: saline + Tween-80 + alcohol 99 % of control | dose: 200.0 mg/kg/injection, schedule: Q01DX009 (ip), vehicle: saline + Tween-80 + alcohol 99 % of control and 102 % of control | dose: 400.0 mg/kg/injection, schedule: Q01DX009 (ip), vehicle: saline + Tween-80 + alcohol 104 % of control and 90 % of control

CC1=NOC(=O)C1N=Nc1ccc(Br)cc1C (stereo not drawn)
inactive: dose: 100.0 mg/kg/injection, schedule: Q04DX002 (ip), vehicle: saline with Tween-80 101 % of control | dose: 100.0 mg/kg/injection, schedule: Q05DX002 (ip), vehicle: saline with Tween-80 99 % of control | dose: 200.0 mg/kg/injection, schedule: Q04DX002 (ip), vehicle: saline with Tween-80 98 % of control | dose: 200.0 mg/kg/injection, schedule: Q05DX002 (ip), vehicle: saline with Tween-80 99 % of control | dose: 400.0 mg/kg/injection, schedule: Q04DX002 (ip), vehicle: saline with Tween-80 102 % of control

O=[N+]([O-])c1ccc(S(=O)(=O)O)cc1 (tested in a mixture with another compound)
inactive: [1] 98 % of control | dose: 200.0 mg/kg/injection, schedule: Q04DX003 (ip), vehicle: saline with Tween-80 101 % of control | dose: 400.0 mg/kg/injection, schedule: Q04DX003 (ip), vehicle: saline with Tween-80 86 % of control

CC(=O)OCC1CC2COCC2CC1COC(C)=O (stereo not drawn)
inactive: dose: 60.0 mg/kg/injection, schedule: Q01DX005 (ip), vehicle: saline with Tween-80 100 % of control | dose: 120.0 mg/kg/injection, schedule: Q01DX005 (ip), vehicle: saline with Tween-80 108 % of control | dose: 240.0 mg/kg/injection, schedule: Q01DX005 (ip), vehicle: saline with Tween-80 102 % of control

C=CCCC(=O)SC(C)(C)C
inactive: dose: 100.0 mg/kg/injection, schedule: Q04DX003 (ip), vehicle: Klucel (hydroxypropylcellulose) (HPC) 112 % of control | dose: 200.0 mg/kg/injection, schedule: Q04DX003 (ip), vehicle: Klucel (hydroxypropylcellulose) (HPC) 110 % of control | dose: 400.0 mg/kg/injection, schedule: Q04DX003 (ip), vehicle: Klucel (hydroxypropylcellulose) (HPC) 103 % of control

c1ccc2c(CN3CCCCC3)c[nH]c2c1
inactive: dose: 50.0 mg/kg/injection, schedule: Q04DX003 (ip), vehicle: saline with Tween-80 100 % of control | [1] 90 % of control

COC(=O)[C@@H]1O[C@H]2OC=C[C@H]21
inactive: dose: 12.5 mg/kg/injection, schedule: Q01DX005 (ip), vehicle: saline 112 % of control | dose: 25.0 mg/kg/injection, schedule: Q01DX005 (ip), vehicle: saline 108 % of control | dose: 50.0 mg/kg/injection, schedule: Q01DX005 (ip), vehicle: saline 99 % of control and 100 % of control

O=C1C(Cl)=C(Nc2ccc(C(=O)Nc3ccc4cc(S(=O)(=O)O)cc(S(=O)(=O)O)c4c3)cc2)C(=O)C(Cl)=C1Nc1ccc(C(=O)Nc2ccc3cc(S(=O)(=O)O)cc(S(=O)(=O)O)c3c2)cc1
inactive: dose: 50.0 mg/kg/injection, schedule: Q01DX009 (ip), vehicle: saline 110 % of control | dose: 100.0 mg/kg/injection, schedule: Q01DX009 (ip), vehicle: saline 89 % of control | dose: 200.0 mg/kg/injection, schedule: Q01DX009 (ip), vehicle: saline 103 % of control

CC(=O)OC1OC(CS[As](C2CCCCC2)C2CCCCC2)C(OC(C)=O)C(OC(C)=O)C1OC(C)=O (stereo not drawn)
inactive: dose: 12.5 mg/kg/injection, schedule: Q01DX009 (ip), vehicle: Klucel (hydroxypropylcellulose) (HPC) 104 % of control and 111 % of control | dose: 25.0 mg/kg/injection, schedule: Q01DX009 (ip), vehicle: Klucel (hydroxypropylcellulose) (HPC) 104 % of control and 120 % of control | dose: 50.0 mg/kg/injection, schedule: Q01DX009 (ip), vehicle: Klucel (hydroxypropylcellulose) (HPC) 98 % of control and 101 % of control

CC[C@@H]1C[C@H]2CC3c4[nH]c5ccc(O)cc5c4CCN(C2)C31
inactive: dose: 100.0 mg/kg/injection, schedule: Q01DX001 (ip), vehicle: saline with Tween-80 99 % of control

CCCCCCCCCc1cc(=O)[nH]c(=O)[nH]1
inactive: dose: 100.0 mg/kg/injection, schedule: Q01DX001 (ip), vehicle: Klucel (hydroxypropylcellulose) (HPC) 96 % of control | dose: 200.0 mg/kg/injection, schedule: Q01DX001 (ip), vehicle: Klucel (hydroxypropylcellulose) (HPC) 96 % of control | dose: 400.0 mg/kg/injection, schedule: Q01DX001 (ip), vehicle: Klucel (hydroxypropylcellulose) (HPC) 94 % of control

O=C(CCC(=O)Nc1ccc2[nH]c3ccccc3c(=O)c2c1)Nc1ccc2[nH]c3ccccc3c(=O)c2c1
inactive: dose: 60.0 mg/kg/injection, schedule: Q01DX005 (ip), vehicle: Klucel (hydroxypropylcellulose) (HPC) 99 % of control | dose: 120.0 mg/kg/injection, schedule: Q01DX005 (ip), vehicle: Klucel (hydroxypropylcellulose) (HPC) 96 % of control | dose: 240.0 mg/kg/injection, schedule: Q01DX005 (ip), vehicle: Klucel (hydroxypropylcellulose) (HPC) 97 % of control

O=C(CC1=NC2NN(c3ccccc3)C(=O)C2=C1CC(=O)c1ccc(Cl)c(Cl)c1)c1ccc(Cl)c(Cl)c1 (stereo not drawn)
inactive: dose: 60.0 mg/kg/injection, schedule: Q01DX005 (ip), vehicle: saline 99 % of control | dose: 120.0 mg/kg/injection, schedule: Q01DX005 (ip), vehicle: saline 100 % of control | dose: 240.0 mg/kg/injection, schedule: Q01DX005 (ip), vehicle: saline 107 % of control

O=C1Oc2ccccc2CC1C(=O)c1ccc(Cl)cc1 (stereo not drawn)
inactive: dose: 50.0 mg/kg/injection, schedule: Q01DX005 (ip), vehicle: saline with Tween-80 106 % of control | dose: 100.0 mg/kg/injection, schedule: Q01DX005 (ip), vehicle: saline with Tween-80 103 % of control | dose: 200.0 mg/kg/injection, schedule: Q01DX005 (ip), vehicle: saline with Tween-80 100 % of control

NC(=O)/C(N=Nc1ccccc1I)=N\Nc1ccccc1I
inactive: dose: 50.0 mg/kg/injection, schedule: Q01DX005 (ip), vehicle: Klucel (hydroxypropylcellulose) (HPC) 97 % of control | dose: 100.0 mg/kg/injection, schedule: Q01DX005 (ip), vehicle: Klucel (hydroxypropylcellulose) (HPC) 98 % of control | dose: 200.0 mg/kg/injection, schedule: Q01DX005 (ip), vehicle: Klucel (hydroxypropylcellulose) (HPC) 97 % of control

O=C1C2=C(CCC2)C(=O)N1c1ccc(N2C(=O)C3=C(CCC3)C2=O)cc1
inactive: dose: 1.56 mg/kg/injection, schedule: Q01DX009 (ip), vehicle: distilled water + Tween-80 101 % of control | dose: 3.13 mg/kg/injection, schedule: Q01DX009 (ip), vehicle: distilled water + Tween-80 102 % of control | dose: 6.25 mg/kg/injection, schedule: Q01DX009 (ip), vehicle: distilled water + Tween-80 100 % of control | dose: 12.5 mg/kg/injection, schedule: Q01DX009 (ip), vehicle: distilled water + Tween-80 99 % of control | dose: 25.0 mg/kg/injection, schedule: Q01DX009 (ip), vehicle: distilled water + Tween-80 107 % of control | dose: 50.0 mg/kg/injection, schedule: Q01DX009 (ip), vehicle: distilled water + Tween-80 103 % of control | dose: 100.0 mg/kg/injection, schedule: Q01DX009 (ip), vehicle: distilled water + Tween-80 119 % of control

CN1C(=O)C2C(N(C3OC(CO)C(O)C3O)C1=O)C2(Cl)Cl (stereo not drawn)
inactive: dose: 75.0 mg/kg/injection, schedule: Q04DX003 (ip), vehicle: saline 100 % of control | [2] 100 % of control | dose: 150.0 mg/kg/injection, schedule: Q04DX003 (ip), vehicle: saline 99 % of control | [3] 99 % of control | dose: 300.0 mg/kg/injection, schedule: Q04DX003 (ip), vehicle: saline 102 % of control | [4] 99 % of control

O=c1[nH]c(=O)n(COCc2ccccc2)cc1F
inactive: dose: 25.0 mg/kg/injection, schedule: Q04DX003 (ip), vehicle: saline 98 % of control | dose: 50.0 mg/kg/injection, schedule: Q04DX003 (ip), vehicle: saline 98 % of control | [2] 98 % of control and 97 % of control | [3] 95 % of control | [4] 98 % of control
